What was measured:
[1] = target: T1, Geminin (Homo sapiens, UniProt O75496); test: Intracellular localization of exogenous Geminin-GFP in co-transfected MCF7 cells (fluorescence microscopy); assay type: cell-based; settings: 100µM, 24-hour incubation
T1 construct: the full length human Geminin ortholog was used; expressed in transfected cells; host or cells: MCF7
T1 sequence (O75496 1-209): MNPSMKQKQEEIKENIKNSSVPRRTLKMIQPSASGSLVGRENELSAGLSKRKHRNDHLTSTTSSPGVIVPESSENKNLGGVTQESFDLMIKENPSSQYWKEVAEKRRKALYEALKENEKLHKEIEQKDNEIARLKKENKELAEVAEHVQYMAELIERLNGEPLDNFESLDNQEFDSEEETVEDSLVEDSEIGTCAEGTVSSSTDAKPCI
Text: A cellular assay was developed and applied using epithelial cells of breast adenocarcinoma (MCF7), for the purpose of the ex vivo study of the mechanism by which the inhibitory effect of the synthetic chemical compound affects the functional significance of the Geminin-Cdtl protein interaction.
Therefore, in order to determine the mechanism of action of the synthetic chemical compound AF-615/30368009, its effect on the Geminin nucleo-cytoplasmic translocation was studied ex vivo.
For the purposes of this experiment, the full length human Geminin ortholog was used as well as the protein Cdt1^DEL which corresponds to the human ortholog which lacks the amino acid residues 170-190. […]
For the implementation of the cellular assay, an appropriate number of cells were seeded onto glass coverslips and cells were allowed to culture in order to adhere. […] Then, the coverslips were washed with 1x PBS buffer (2 times), mounted on microscope slides using mounting medium containing the dye DAPI (that stains only nuclei) and were observed under a fluorescence microscope. […]
The experimental design included the transient co-transfection of MCF7 cancer cells with Geminin-GFP & dhcRed and Geminin-GFP & Cdt1^DEL-dhcRed. […] The intracellular localization of Geminin was detected by the autofluorescence of the GFP molecule. […]

[2] = test system: Mouse Embryonic Fibroblasts, MEFs; test: Cell cycle progression by propidium iodide flow cytometry, normal (primary) cells; assay type: cell-based; settings: 100 µM, 23hrs, compared to DMSO control (Fig. 5D vs 5C)
Description: Since the proteins Geminin and Cdtl are key regulators of the cell cycle, the effect of the synthetic compound on the development of the cancer cell and normal cell cycle was studied. Staining of the genetic material of the cells was performed with propidium iodide and the technique of flow cytometry was applied for their separation, based on the amount of genetic material.
MCF7 cells were used as cancer cells, whereas primary cells and particularly embryonic mouse fibroblasts (Mouse Embryonic Fibroblasts, MEFs) were used as normal cells. The cells were incubated with the synthetic chemical compound AF-615/30368009 at a concentration of 100 µM and cultured for 23hrs in 100-mm dishes, to 80% confluency. Cells which had been incubated with only DMSO were used as a negative control sample. The next day of the incubation, cells were harvested using trypsin. […] The experiments were conducted using a Becton Dickinson flow cytometer and the data were analyzed by the WinMDi software version 2.8. […]
The graphs shown in Fig. 5 are representative of at least two independent experiments. The x axis represents the intensity of the fluorescence of propidium iodide and proportionally the amount of DNA content of the cells, while the y-axis corresponds to the number of events for each phase of the cell cycle.

O=C(NNC(=S)N1CCOCC1)c1cnccn1 [AF-615/30368009, N'-(morpholine-4-carbothioyl)pyrazine-2-carbohydrazide]
intracellular localization of Geminin ([1]; MCF7, co-transfection with Geminin-GFP & Cdt1^DEL-dhcRed (Fig. 4)): no detectable change
percentage of cells with nuclear localization of Geminin ([1]; MCF7, co-transfection with Geminin-GFP & dhcRed (Fig. 4)): statistically significant increase
percentage of cells in G2/M phase [2]: mild reduction
percentage of cells in phase G0/G1 and S [2]: no significant change
